Assay results published in patent publication US12692289B2, “Tumor-specific peptide antigens for ovarian cancer and uses thereof” (UNIVERSITE DE MONTREAL, priority 2019, dated 2026).
Peptide text beside a SMILES is read from it.

Test system: TCGA-OV cohort
Test: TCGA-OV cohort analysis: survival and immune cell scores by aeTSA RNA expression and HLA allotype
Parameters: species or system human
Conditions: immune cell scores from RNA-Seq, ANOVA, p<0.05
Excerpt: Clinical and genomic data from TCGA. Processed and normalized level 3 data with hg38 for HM27 methylation, DNA copy number variation, RNA-Seq gene expression as well as the clinical data were downloaded from the TCGA open-access database using the R package ‘TCGAbiolinks’ (31). Arm-level DNA copy number alterations were downloaded from Broad Institute TCGA Genome Data Analysis Center (doi:10.7908/C1P84B9Q).
Immune cell scores. Immune cell scores representing immune cell populations were estimated based on RNA-Seq data. For each tumor, scores were estimated as the average of log-transformed FPKM values of their marker genes as described by Danaher et al. (32).
Statistical analyses and data visualization. Analyses and figures were performed using the R v3.5.1 or Python v2.7.6. The ‘gplots’ package in R was used to generate heatmaps of TSA coding region expression in tumors. Correlation tests were done using R function ‘cor.test’ with the Spearman's method unless otherwise indicated. Tests involving comparisons of distributions were performed with ANOVA test, and pairwise comparisons between groups were performed by Wilcoxon rank sum test. Log-rank P values for survival analysis were calculated with the ‘survival’ package.

## CSCC[C@H](NC(=O)[C@H](CCC(N)=O)NC(=O)[C@H](Cc1c[nH]cn1)NC(=O)[C@@H](NC(=O)[C@@H](N)CCCNC(=N)N)[C@@H](C)O)C(=O)N[C@@H](CC(N)=O)C(=O)N[C@H](C(=O)N[C@@H](Cc1ccccc1)C(=O)N[C@@H](CCC(N)=O)C(=O)N[C@@H](CCCNC(=N)N)C(=O)O)[C@@H](C)O (H-RTHQMNTFQR-OH; N-terminus and C-terminus assumed)
  correlation of aeTSA expression and relevant HLA allotype with tumor infiltration by T cells and cytotoxic T cells: positive correlation
